{"source": "patent US9328173B2", "about": "“Multifunctional antibodies binding to EGFR and MET” (Eli Lilly and Company, priority 2013, dated 2016)", "molecules": {"B1": {"name": "EM1-mAb: bispecific antibody targeting both EGFR and cMET made by controlled Fab Arm Exchange (antibody, chains of the INN, looked up, V domains shown)", "VH": "QVQLVESGGGVVQPGRSLRLSCAASGFTFSTYGMHWVRQAPGKGLEWVAVIWDDGSYKYYGDSVKGRFTISRDNSKNTLYLQMNSLRAEDTAVYYCARDGITMVRGVMKDYFDYWGQGTLVTVSS", "VL": "AIQLTQSPSSLSASVGDRVTITCRASQDISSALVWYQQKPGKAPKLLIYDASSLESGVPSRFSGSESGTDFTLTISSLQPEDFATYYCQQFNSYPLTFGGGTKVEIK", "VH2": "QVQLVQSGAEVKKPGASVKVSCETSGYTFTSYGISWVRQAPGHGLEWMGWISAYNGYTNYAQKLQGRVTMTTDTSTSTAYMELRSLRSDDTAVYYCARDLRGTNYFDYWGQGTLVTVSS", "VL2": "DIQMTQSPSSVSASVGDRVTITCRASQGISNWLAWFQHKPGKAPKLLIYAASSLLSGVPSRFSGSGSGTDFTLTISSLQPEDFATYYCQQANSFPITFGQGTRLEIK"}}, "key": {"HT-29 cells": {"tested_on": "HT-29 cells", "test": "Restoring HT-29 sensitivity to PLX4032 in the presence of HGF and EGF", "assay_type": "cell-based", "conditions": "Homo sapiens, HT-29, 120 h; read-out: AVG = average % of cell viability", "experimental": "The colon cancer cell line HT-29 has a B-Raf mutation and is sensitive to the B-Raf inhibitor PLX4032. […] Briefly, 3×10^3 cells/well in 100 μL culture medium may be plated in 96 well plates and incubated overnight at 37° C., 5% CO2. […] At the end of an additional 5 days of cell growth, plates may be equilibrated to room temperature for 30 minutes and 100 μL per well of CellTiter-Glo® reagent (Promega Corp.) may be added. Cell viability can be determined by measuring luminescence."}, "MKN45 cells": {"tested_on": "MKN45 cells", "test": "MKN45 apoptosis assay (caspase-3/7 positive cells, […])", "assay_type": "cell-based, human", "conditions": "antibody 100 nM, untreated = 100.00", "experimental": "The gastric cancer cell line MKN45 can be used to assay apoptosis induced by antibodies. Briefly, 3×10^3 cells/well in 80 μL culture medium may be plated in 96 well plates and incubated overnight at 37° C., 5% CO2. CellEvent™ reagent (Life Technologies, Carlsbad, Calif.) may be diluted in cell culture medium and added at 10 μL per well. […] The caspase-3/7 positive cells may be measured in real-time by […]™ Kinetic Imaging System (Essen Bioscience, Ann Arbor, Mich.) with 3 hours intervals at 37° C., 5% CO2 for a total of 120 hours."}, "FaDu cells": {"tested_on": "FaDu cells", "test": "Restoring FaDu sensitivity to lapatinib in the presence of HGF or EGF", "assay_type": "cell-based", "conditions": "Homo sapiens, antibodies 50 nM, read-out: % of cell viability; for viability at 0.001 µM: lapatinib 0.001 μM; for viability at 0.003 µM: lapatinib 0.003 μM; for viability at 0.01 µM: lapatinib 0.01 μM; for viability at 0.03 µM: lapatinib 0.03 μM; for viability at 0.1 µM: lapatinib 0.1 μM; for viability at 0.3 µM: lapatinib 0.3 μM; for viability at 1 µM: lapatinib 1 μM; for viability at 3 µM: lapatinib 3 μM; for viability at 10 µM: lapatinib 10 μM", "experimental": "Briefly, 3×10^3 cells/well in 100 μL culture medium may be plated in 96 well plates and incubated overnight at 37° C., 5% CO2. […] At the end of an additional 5 days of cell growth, plates may be equilibrated to room temperature for 30 minutes and 100 μL per well of CellTiter-Glo® reagent (Promega Corp.) may be added. Cell viability can be determined by measuring luminescence."}, "HCC827 cells": {"tested_on": "HCC827 cells", "test": "Restoring HCC827 sensitivity to erlotinib in the presence of HGF", "conditions": "Homo sapiens, HCC827, 72 h, read-out: AVG = average % of cell viability", "experimental": "Briefly, 3×10^3 cells/well in 100 μL culture medium may be plated in 96 well plates and incubated overnight at 37° C., 5% CO2. […] Cell viability may be determined by measuring luminescence."}, "ERK phosphorylation": {"tested_on": "ERK phosphorylation", "conditions": "in vitro ERK phosphorylation assay; cited from earlier work"}}, "note": "Where two headings read alike, the source gives them in different places."}
{"molecule": "CCCS(=O)(=O)Nc1ccc(F)c(C(=O)c2c[nH]c3ncc(-c4ccc(Cl)cc4)cc23)c1F", "note": "[PLX, PLX4032]", "values": [{"measurement": "viability at 0.00032 µM", "setting": "HT-29 cells", "value": 101, "unit": "%"}, {"measurement": "viability at 0.0016 µM", "setting": "HT-29 cells", "value": 99.9, "unit": "%"}, {"measurement": "viability at 0.008 µM", "setting": "HT-29 cells", "value": 97.6, "unit": "%"}, {"measurement": "viability at 0.04 µM", "setting": "HT-29 cells", "value": 83.1, "unit": "%"}, {"measurement": "viability at 0.2 µM", "setting": "HT-29 cells", "value": 56.7, "unit": "%"}, {"measurement": "viability at 1 µM", "setting": "HT-29 cells", "value": 33.7, "unit": "%"}]}
{"molecule": "anti-MET Ab: parental anti-MET antibody C8-H241 (human IgG4 subtype), described in WO 2010/059654 [reference compound]", "values": [{"measurement": "AVG = average % increase of cell apoptosis", "setting": "MKN45 cells; 24 hr", "value": 100.35, "unit": "%"}, {"measurement": "AVG = average % increase of cell apoptosis", "setting": "MKN45 cells; 48 hr", "value": 222.81, "unit": "%"}, {"measurement": "AVG = average % increase of cell apoptosis", "setting": "MKN45 cells; 72 hr", "value": 275.40, "unit": "%"}, {"measurement": "AVG = average % increase of cell apoptosis", "setting": "MKN45 cells; 96 hr", "value": 286.63, "unit": "%"}, {"measurement": "AVG = average % increase of cell apoptosis", "setting": "MKN45 cells; 120 hr", "value": 353.84, "unit": "%"}]}
{"molecule": "CS(=O)(=O)CCNCc1ccc(-c2ccc3ncnc(Nc4ccc(OCc5cccc(F)c5)c(Cl)c4)c3c2)o1", "note": "[lapatinib]", "values": [{"measurement": "viability at 0.001 µM", "setting": "FaDu cells; E = EGF (50 ng/ml)", "value": 109, "unit": "%"}, {"measurement": "viability at 0.001 µM", "setting": "FaDu cells; H = HGF (50 ng/ml)", "value": 99.5, "unit": "%"}, {"measurement": "viability at 0.003 µM", "setting": "FaDu cells; E = EGF (50 ng/ml)", "value": 109, "unit": "%"}, {"measurement": "viability at 0.003 µM", "setting": "FaDu cells; H = HGF (50 ng/ml)", "value": 101, "unit": "%"}, {"measurement": "viability at 0.01 µM", "setting": "FaDu cells; E = EGF (50 ng/ml)", "value": 78.7, "unit": "%"}, {"measurement": "viability at 0.01 µM", "setting": "FaDu cells; H = HGF (50 ng/ml)", "value": 95.8, "unit": "%"}, {"measurement": "viability at 0.03 µM", "setting": "FaDu cells; E = EGF (50 ng/ml)", "value": 69.4, "unit": "%"}, {"measurement": "viability at 0.03 µM", "setting": "FaDu cells; H = HGF (50 ng/ml)", "value": 68.8, "unit": "%"}, {"measurement": "viability at 0.1 µM", "setting": "FaDu cells; E = EGF (50 ng/ml)", "value": 45.6, "unit": "%"}, {"measurement": "viability at 0.1 µM", "setting": "FaDu cells; H = HGF (50 ng/ml)", "value": 45.4, "unit": "%"}, {"measurement": "viability at 0.3 µM", "setting": "FaDu cells; E = EGF (50 ng/ml)", "value": 32.5, "unit": "%"}, {"measurement": "viability at 0.3 µM", "setting": "FaDu cells; H = HGF (50 ng/ml)", "value": 32.5, "unit": "%"}, {"measurement": "viability at 1 µM", "setting": "FaDu cells; E = EGF (50 ng/ml)", "value": 26.3, "unit": "%"}, {"measurement": "viability at 1 µM", "setting": "FaDu cells; H = HGF (50 ng/ml)", "value": 26.9, "unit": "%"}, {"measurement": "viability at 3 µM", "setting": "FaDu cells; E = EGF (50 ng/ml)", "value": 19, "unit": "%"}, {"measurement": "viability at 3 µM", "setting": "FaDu cells; H = HGF (50 ng/ml)", "value": 18.5, "unit": "%"}, {"measurement": "viability at 10 µM", "setting": "FaDu cells; E = EGF (50 ng/ml)", "value": 19.6, "unit": "%"}, {"measurement": "viability at 10 µM", "setting": "FaDu cells; H = HGF (50 ng/ml)", "value": 17.1, "unit": "%"}]}
{"molecule": "C#Cc1cccc(Nc2ncnc3cc(OCCOC)c(OCCOC)cc23)c1", "note": "[Erlotinib, erlotinib]", "values": [{"measurement": "viability at 1 µM", "setting": "HCC827 cells", "value": 18, "unit": "%"}]}
{"molecule": "B1", "values": [{"measurement": "activity compared to the combination of monovalent control antibodies", "setting": "ERK phosphorylation", "value": "superior activity"}]}
